# From PubChem BioAssay AID330 (DTP/NCI, 2004)
# Values joined by “and” are separate entries in the source; they are usually repeats but may differ in a detail not shown here. Equal entries are not always repeated. Toxic doses and inconclusive results are not listed.
# Tested on: P388 leukemia ip, CD2F1 mice, survival T/C
# Assay: NCI In Vivo Anticancer Drug Screen. Data for tumor model P388 Leukemia (intraperitoneal) in CD2F1 (CDF1) mice
# Settings: endpoint: median survival time, higher = longer survival
# Summary of the method: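 Mice carrying the transplanted tumor received test compound or vehicle. Survival was recorded in each group, and the value is the treated-group measurement divided by that of the vehicle-treated control group.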
# [1] = dose: 50.0 mg/kg/injection, schedule: Q01DX009 (ip), vehicle: Klucel (hydroxypropylcellulose) (HPC)
# [2] = dose: 100.0 mg/kg/injection, schedule: Q01DX009 (ip), vehicle: Klucel (hydroxypropylcellulose) (HPC)
# [3] = dose: 200.0 mg/kg/injection, schedule: Q01DX009 (ip), vehicle: Klucel (hydroxypropylcellulose) (HPC)
# [4] = dose: 50.0 mg/kg/injection, schedule: Q01DX009 (ip), vehicle: saline
# [5] = dose: 100.0 mg/kg/injection, schedule: Q01DX009 (ip), vehicle: saline
# [6] = dose: 200.0 mg/kg/injection, schedule: Q01DX009 (ip), vehicle: saline
# [7] = dose: 12.5 mg/kg/injection, schedule: Q01DX009 (ip), vehicle: saline
# [8] = dose: 50.0 mg/kg/injection, schedule: Q01DX009 (ip), vehicle: saline with Tween-80
# [9] = dose: 12.5 mg/kg/injection, schedule: Q01DX009 (ip), vehicle: water
# [10] = dose: 25.0 mg/kg/injection, schedule: Q01DX009 (ip), vehicle: water
compound,measurement,setting,value
O=C(O)c1c2c(nc3ccccc13)CCCC2,T/C,"dose: 50.0 mg/kg/injection, schedule: Q01DX005 (ip), vehicle: Klucel + Tween-80",94 % of control
same,T/C,"dose: 100.0 mg/kg/injection, schedule: Q01DX005 (ip), vehicle: Klucel + Tween-80",107 % of control
Cc1cs/c(=N/N=C2C=CC(=O)C=C2)n1O,T/C,[1],102 % of control
same,T/C,[2],107 % of control
same,T/C,[3],101 % of control
Cc1cc(OC(=O)c2c(-c3c(Cl)cccc3Cl)noc2C)n(-c2ccc(NC(=O)c3c(-c4c(Cl)cccc4Cl)noc3C)cc2)n1,T/C,[4],93 % of control
same,T/C,[5],89 % of control
same,T/C,[6],88 % of control
CCNC(=O)OCc1ccco1,T/C,[7],92 % of control
same,T/C,"dose: 25.0 mg/kg/injection, schedule: Q01DX009 (ip), vehicle: saline",92 % of control
same,T/C,[8],107 % of control
O=C1C2C3C=CC(C2C(=O)N1CO)C1C2C(=O)N(CO)C(=O)C2C31 (stereo not given),T/C,[9],105 % of control
same,T/C,[10],157 % of control
same,T/C,[8],195 % of control
same,T/C,"dose: 50.0 mg/kg/injection, schedule: Q01DX009 (ip), vehicle: water",208 % of control
O=NNc1ccc([N+](=O)[O-])cn1,T/C,"dose: 3.12 mg/kg/injection, schedule: Q01DX009 (ip), vehicle: water",107 % of control
same,T/C,"dose: 6.25 mg/kg/injection, schedule: Q01DX009 (ip), vehicle: saline",106 % of control and 96 % of control
same,T/C,"dose: 6.25 mg/kg/injection, schedule: Q01DX009 (ip), vehicle: water",96 % of control
same,T/C,[7],122 % of control and 123 % of control
same,T/C,[9],102 % of control
same,T/C,[10],105 % of control and 88 % of control
same,T/C,[4],176 % of control
CC1(C)C2CCC(C2)C1OC(=O)c1ccccc1C(=O)O (stereo not given),T/C,"dose: 60.0 mg/kg/injection, schedule: Q01DX005 (ip), vehicle: saline with Tween-80",99 % of control
same,T/C,"dose: 120.0 mg/kg/injection, schedule: Q01DX005 (ip), vehicle: saline with Tween-80",98 % of control
same,T/C,"dose: 240.0 mg/kg/injection, schedule: Q01DX005 (ip), vehicle: saline with Tween-80",104 % of control
CC(=O)OC1OC(CS[As](C)C)C(OC(C)=O)C(OC(C)=O)C1OC(C)=O (stereo not given),T/C,[4],104 % of control
same,T/C,[5],106 % of control
same,T/C,[6],104 % of control
CCN(CC)Cc1cc(N=Nc2cccc3ccccc23)c2ccccc2c1O,T/C,[1],102 % of control
same,T/C,[2],108 % of control
same,T/C,[3],100 % of control
O=C(O)c1ccccc1.O=C(O)c1ccccc1.O=C(O)c1ccccc1.O=C(O)c1ccccc1.[Cu].[Cu],T/C,"dose: 7.5 mg/kg/injection, schedule: Q01DX005 (ip), vehicle: Klucel (hydroxypropylcellulose) (HPC)",99 % of control
same,T/C,"dose: 15.0 mg/kg/injection, schedule: Q01DX005 (ip), vehicle: Klucel (hydroxypropylcellulose) (HPC)",97 % of control
N#Cc1c(C#N)c(O)c2c(N)cccc2c1O,T/C,"dose: 100.0 mg/kg/injection, schedule: Q04DX002 (ip), vehicle: saline with Tween-80",105 % of control
same,T/C,"dose: 200.0 mg/kg/injection, schedule: Q04DX002 (ip), vehicle: saline with Tween-80",108 % of control
N#CC(=O)Nc1cccc(Cl)c1,T/C,"dose: 15.0 mg/kg/injection, schedule: Q01DX005 (ip), vehicle: saline with Tween-80",107 % of control
same,T/C,"dose: 30.0 mg/kg/injection, schedule: Q01DX005 (ip), vehicle: saline with Tween-80",103 % of control
O=C(N/N=C/c1ccccc1O)c1cccc([N+](=O)[O-])c1,T/C,[5],99 % of control
same,T/C,[6],100 % of control
same,T/C,"dose: 400.0 mg/kg/injection, schedule: Q01DX009 (ip), vehicle: saline",91 % of control
